The supplement of paper PMC10307832

What was measured:
Assay in all cases: relative viability (nuclei count vs DMSO), 5 days (fraction); higher = more cells survive
[1] = tested on: NCI-H520
How it was run: (§1)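 Medians of duplicate plates are given as relative viability. That measure is the nuclei count in treated wells divided by the count in vehicle wells. Counts were taken on 4× images of lung cancer cell lines in 1536-well plates, 5 days after pin-tool dosing the day after seeding with one drug alone or a fixed anchor-drug dose plus five library-drug doses (not always all listed) in √10 steps.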

[2] = tested on: EKVX
How it was run: as §1

[3] = tested on: COR-L 105
How it was run: as §1

[4] = tested on: LU99A
How it was run: as §1

[5] = tested on: ABC-1
How it was run: as §1

[6] = tested on: NCI-H460
How it was run: as §1

[7] = tested on: SW 900
How it was run: as §1

[8] = tested on: NCI-H727
How it was run: as §1

[9] = tested on: HCC-44
How it was run: as §1

[10] = tested on: NCI-H2023
How it was run: as §1

[11] = tested on: CAL-12T
How it was run: as §1

Cc1cn(-c2cc(NC(=O)c3ccc(C)c(Nc4nccc(-c5cccnc5)n4)c3)cc(C(F)(F)F)c2)cn1 [Nilotinib] + O=C(c1cc(Cc2n[nH]c(=O)c3ccccc23)ccc1F)N1CCN(C(=O)C2CC2)CC1 [Olaparib] (partner 8 µM)
relative viability ([1]; first compound 0.001 µM): 0.321 | relative viability ([1]; first compound 0.003162 µM): 0.293 | relative viability ([1]; first compound 0.01 µM): 0.305 | relative viability ([1]; first compound 0.03162 µM): 0.316 | relative viability ([1]; first compound 0.1 µM): 0.294 | relative viability ([2]; first compound 0.001 µM): 0.735 | relative viability ([2]; first compound 0.003162 µM): 1.08 | relative viability ([2]; first compound 0.01 µM): 1.23 | relative viability ([2]; first compound 0.03162 µM): 0.834 | relative viability ([2]; first compound 0.1 µM): 1.07 | relative viability ([3]; first compound 0.001 µM): 0.629 | relative viability ([3]; first compound 0.003162 µM): 0.688 | relative viability ([3]; first compound 0.01 µM): 0.645 | relative viability ([3]; first compound 0.03162 µM): 0.636 | relative viability ([3]; first compound 0.1 µM): 1.09 | relative viability ([4]; first compound 0.001 µM): 0.2 | relative viability ([4]; first compound 0.003162 µM): 0.201 | relative viability ([4]; first compound 0.03162 µM): 0.221 | relative viability ([4]; first compound 0.1 µM): 0.164 | relative viability ([5]; first compound 0.001 µM): 0.671 | relative viability ([5]; first compound 0.003162 µM): 0.873 | relative viability ([5]; first compound 0.01 µM): 0.778 | relative viability ([5]; first compound 0.03162 µM): 0.828 | relative viability ([5]; first compound 0.1 µM): 0.673 | relative viability ([6]; first compound 0.001 µM): 0.318 | relative viability ([6]; first compound 0.003162 µM): 0.295 | relative viability ([6]; first compound 0.01 µM): 0.496 | relative viability ([6]; first compound 0.03162 µM): 0.27 | relative viability ([6]; first compound 0.1 µM): 0.34 | relative viability ([7]; first compound 0.003162 µM): 0.916 | relative viability ([7]; first compound 0.01 µM): 0.965 | relative viability ([7]; first compound 0.03162 µM): 0.77 | relative viability ([7]; first compound 0.1 µM): 0.776 | relative viability ([8]; first compound 0.001 µM): 0.574 | relative viability ([8]; first compound 0.003162 µM): 0.847 | relative viability ([8]; first compound 0.01 µM): 0.658 | relative viability ([8]; first compound 0.03162 µM): 0.732 | relative viability ([8]; first compound 0.1 µM): 0.732 | relative viability ([9]; first compound 0.001 µM): 0.895 | relative viability ([9]; first compound 0.003162 µM): 0.97 | relative viability ([9]; first compound 0.01 µM): 0.976 | relative viability ([9]; first compound 0.1 µM): 0.983 | relative viability ([10]; first compound 0.001 µM): 0.429 | relative viability ([10]; first compound 0.003162 µM): 0.486 | relative viability ([10]; first compound 0.01 µM): 0.599 | relative viability ([10]; first compound 0.03162 µM): 0.361 | relative viability ([10]; first compound 0.1 µM): 0.394 | relative viability ([11]; first compound 0.001 µM): 0.648 | relative viability ([11]; first compound 0.003162 µM): 0.677 | relative viability ([11]; first compound 0.01 µM): 0.738 | relative viability ([11]; first compound 0.03162 µM): 0.67 | relative viability ([11]; first compound 0.1 µM): 0.793
